Measurements reported in patent publication US20230000894A1, “TREATING MITOCHONDRIAL DNA DEPLETION DISORDERS” (MITORAINBOW THERAPEUTICS, INC., priority 2019, published 2023).

What was measured:
[1] = Systemic exposure of dC and dT after oral dCMP+dTMP vs intravenous dC(P2)dT (Example 1); format: in vivo; conditions: for metabolism in vivo (detectability of administered labeled analyte in plasma) / higher oral dose needed to deliver comparable plasma exposure of the corresponding nucleoside compared with intravenous dC(P2)dT: in vivo
Description: The systemic exposure of two mononucleotides (dCMP and dTMP) and their corresponding mononucleosides (dC and dT) following oral dosing of two mononucleotides (dCMP & dTMP) vs. intravenous dosing of a dinucleotide (dC(P2)dT) was determined. Test articles were prepared as follows:
Unlabeled test articles: dC=Deoxycytidine (nucleoside) dT=Deoxythymidine (nucleoside) dCMP=Deoxycytidine monophosphate (mononucleotide) dTMP=Deoxythymidine monophosphate (mononucleotide) dC(P2)dT or dT(P2)dC=Deoxycytidine-deoxythymidine diphosphate (dinucleotide) Labeled test articles: dC*=^15N3 labeled dC (labeled nucleoside) dT**=^13C10 and ^15N2 labeled dT (labeled nucleoside) The corresponding labeled nucleotides are dC*MP and dT**MP The corresponding labeled dinucleotide is dC*(P2)dT** or dT**(P2)dC*.
The nucleosides (dC and dT) and their corresponding monophosphate nucleotides (dCMP and dTMP) are naturally produced in the body. In order to differentiate naturally occurring vs exogenously administered dC/dT and dCMP/dTMP, a mixture of labeled dC*MP/dT**MP and unlabeled dCMP/dTMP was dosed via oral route, and a mixture of labeled dC*(P2)dT** and unlabeled dC(P2)dT via I.V. route. The labeled test articles served as tracers for the determination of systemic levels of exogenous dC/dT and dCMP/dTMP following dosing.
Plasma samples were then analyzed for the following analytes: dT**, dC*, dT**MP, dC*MP, and dC*(P2)dT**.
To correct for total TA (labeled+unlabeled) administered, the plasma levels of labeled analytes were multiplied by 10 and 5 for the P.O. and I.V. treatment groups, respectively. In addition, the total TA dose administered by P.O route was 1000 mg/kg (900 mg/kg unlabeled+100 mg/kg labeled) and 10 mg/kg (8 mg/kg unlabeled and 2 mg/kg labeled) for P.O. and I.V. treatment groups, respectively. To normalize by unit dose of TA administered the plasma levels of analytes were divided by 1000 and 10 for P.O. and I.V. treatment groups, respectively. The results of the label-corrected and dose-normalized levels of dT and dC for P.O. and I.V. routes of administration are shown in FIG. 2.
The differences in the AUC0-24h for I.V. vs. P.O. for both analytes are statistically different (p<0.01, t-test). The ratios of I.V./P.O. AUC(0-24h)'s are approximately 350 for dT and […].

[2] = Systemic exposure of dC and dT after a single I.V. vs one and two S.C. injections of dC(P2)dT (Example 2); format: in vivo; conditions: rats, 10 mg/kg total per dose (2 labeled + 8 unlabeled), initial 24 h post-dose
Description: The systemic exposure of dC and dT following a single I.V. injection of dC(P2)dT vs one and two subcutaneous (S.C.) injections of dC(P2)dT was compared, where the second S.C. injection is administered 24 h after the first.
Plasma levels of label-normalized dT and dC levels following a single I.V. and one and two S.C. administrations of labeled and unlabeled dC(P2)dT groups are shown in FIG. 4.

| metabolism in vivo (detectability of administered labeled analyte in plasma) [1] | higher oral dose needed to deliver comparable plasma exposure of the corresponding nucleoside compared with intravenous dC(P2)dT [1] | Molecule | other results |
| --- | --- | --- | --- |
| rapid metabolism | – | Nc1ccn([C@H]2C[C@H](O)[C@@H](COP(=O)(O)O)O2)c(=O)n1 [dC*MP] | – |
| – | approximately 110 fold | Nc1ccn([C@H]2C[C@H](O)[C@@H](COP(=O)(O)O)O2)c(=O)n1 [dCMP, Deoxycytidine monophosphate] | – |
| – | approximately 350 fold | Cc1cn([C@H]2C[C@H](O)[C@@H](COP(=O)(O)O)O2)c(=O)[nH]c1=O [dTMP, Deoxythymidine monophosphate] | – |
| – | – | Deoxycytidine-deoxythymidine diphosphate [dC(P2)dT] | ratio of plasma AUC0-24h I.V. vs P.O. for dC ([1]; label-corrected, dose-normalized total dC in plasma, I.V. dC(P2)dT 10 mg/kg total vs P.O. dCMP+dTMP 1000 mg/kg total, p<0.01, t-test): ~110 fold; ratio of plasma AUC0-24h I.V. vs P.O. for dT ([1]; label-corrected, dose-normalized total dT in plasma, I.V. dC(P2)dT 10 mg/kg total vs P.O. dCMP+dTMP 1000 mg/kg total, p<0.01, t-test): approximately 350 fold; mean AUC0-24h of dT and dC in plasma, I.V. vs one and two S.C. administrations [2]: not statistically different |
| rapid metabolism | – | Cc1cn([C@H]2C[C@H](O)[C@@H](COP(=O)(O)O)O2)c(=O)[nH]c1=O [dT**MP] | – |
